The values below come from patent publication US9849193B2, “Nanoparticles for drug delivery” (University of Louisville Research Foundation, Inc., priority 2013, dated 2017).

This data set in a line: Heat-induced release of drug surrogate (alcohol 11 or amine 12) from linkers in methanol, HPLC quantification. The following applies: for % release after heating (55° C.) at time (h) 0.25 / % release after heating (55° C.) at time (h) 0.5 / % release after heating (55° C.) at time (h) 0.75 / % release after heating (55° C.) at time (h) 1 / % release after heating (55° C.) at time (h) 2 / % release after heating (55° C.) at time (h) 3 / % release after heating (55° C.) at time (h) 24 h / % release at rt, 3.5 h: release of alcohol 11, mean ± SD, n = 3; for % release after heating (55° C.) at time (h) 0.25 / % release after heating (55° C.) at time (h) 0.5 / % release after heating (55° C.) at time (h) 0.75 / % release after heating (55° C.) at time (h) 1 / % release after heating (55° C.) at time (h) 2 / % release after heating (55° C.) at time (h) 3 / % release after heating (55° C.) at time (h) 24 h / Heat-induced release of 11 or 12 (result in words, spans all time columns): methanol ca. 0.01 M; for % release after heating (55° C.) at time (h) 0.25: 0.25 h; for % release after heating (55° C.) at time (h) 0.5: 0.5 h; for % release after heating (55° C.) at time (h) 0.75: 0.75 h; for % release after heating (55° C.) at time (h) 1: 1 h; for % release after heating (55° C.) at time (h) 2: 2 h; for % release after heating (55° C.) at time (h) 3: 3 h; for % release at rt, 3.5 h: room temperature control; for Heat-induced release of 11 or 12 (result in words, spans all time columns): 55° C. up to 24 h and rt 3.5 h. Type of data set: physicochemical. The method, then: Methanol (MeOH) was used as a solvent to provide a protic solvent capable of hydrogen bonding. The amine-containing linker compounds, formed on Boc-deprotection with basic work-up (compounds 4.1-3, 8.1-2, 9, 10), were diluted with MeOH (2 mL, ˜0.01 M). An aliquot was removed to serve as a room temperature control. Heat was applied to the MeOH solutions using an oil bath. The temperature was set at 55° C., and the solutions were heated for a total of 24 h. Aliquots were taken at t=0.25, 0.50, 0.75, 1, 2, 3, and 24 h into the reaction. On sampling, the aliquots were, immediately stored at −5° C. On completion of the experiment, the samples were warmed to room temperature, filtered and dried under reduced pressure (3.5 h duration) and then returned to −5° C. Each sample was then removed individually from the freezer and diluted with 400 μL CH2Cl2 before injecting 50 μL into an HPLC fitted with a normal phase silica column (Waters Nova-Pak HR Silica, 6 μm, 60 Å, 3.9×300 mm prep column; 1% MeOH in CH2Cl2 with 0.1% Et3N). HPLC analysis enabled quantification of released 11 or 12. Schemes 3 and 4 depict the intramolecular cyclization processes to release the drug surrogate (e.g., 11 or 12). […] FIG. 12 graphically illustrates the heat-induced release of alcohol 11 (Table 1). The substrates were heated as methanol solutions (ca. 0.01 M) at 55° C. for the indicated times as described above.

Molecules are shown by their SMILES.

`C=CCNCCC(C)(C)CCC(=O)OCCc1c2ccccc2cc2ccccc12` [Compound 20, 2-(anthracen-9-yl)ethyl 6-(allylamino)-4,4-dimethylhexanoate]: the “% release after heating (55° C.) at time (h) 0.25” value (shortened to “% release after heating … (h) 0.25”) was 2.0 ± 0.1%, the “% release after heating (55° C.) at time (h) 0.5” value (from here on “% release after heating … (h) 0.5”) was determined as 2.2 ± 0.1%, the “% release after heating (55° C.) at time (h) 0.75” value (“% release after heating … (h) 0.75” below) turned out to be 2.7 ± 0.1% and the “% release after heating (55° C.) at time (h) 1” value (“% release after heating … (h) 1” below) is 3.3 ± 0.4%. Besides, the “% release after heating (55° C.) at time (h) 2” value turned out to be 4.1 ± 0.3%; the “% release after heating (55° C.) at time (h) 3” value (“% release after heating … (h) 3” for short) worked out at 5.2 ± 0.8%; the “% release after heating (55° C.) at time (h) 24 h” value (from here on “% release after heating … (h) 24 h”) came to 24.7 ± 3.9%; the “% release at rt, 3.5 h” value is listed as 1.8 ± 0.2%.

With `C=CCNCCCC(=O)OCCc1c2ccccc2cc2ccccc12` [Compound 4.1, 2-(anthracen-9-yl)ethyl 4-(allylamino)butanoate], the “% release after heating … (h) 0.25” value came to 24.6 ± 3.1%, the “% release after heating … (h) 0.5” value is reported as 29.2 ± 1.7%, the “% release after heating … (h) 0.75” value stood at 33.4 ± 2.5% and the “% release after heating … (h) 1” value is 36.6 ± 2.6%. Moreover, the “% release after heating (55° C.) at time (h) 2” value is given as 44.4 ± 3.7%; the “% release after heating … (h) 3” value was 50.2 ± 4.2%; the “% release after heating … (h) 24 h” value was 94.0 ± 1.8%; the “% release at rt, 3.5 h” value is 20.2 ± 3.1%.

In the case of `C=CCNCCOC(=O)OCCc1c2ccccc2cc2ccccc12` [Compound 8.1, 2-(allylamino)ethyl(2-(anthracen-9-yl)ethyl) carbonate], the “% release after heating … (h) 0.25” value was determined as 23.5 ± 1.9%, the “% release after heating … (h) 0.5” value was determined as 28.9 ± 1.7%, the “% release after heating … (h) 0.75” value is 32.4 ± 4.0% and the “% release after heating … (h) 1” value is 36.7 ± 4.8%. Also, the “% release after heating (55° C.) at time (h) 2” value was 48.3 ± 5.7%; the “% release after heating … (h) 3” value stood at 57.0 ± 6.9%; the “% release after heating … (h) 24 h” value is 68.9 ± 3.0%; the “% release at rt, 3.5 h” value came out at 18.8 ± 2.3%.

With `C=CCNCCCOC(=O)OCCc1c2ccccc2cc2ccccc12` [Compound 8.2, 3-(allylamino)propyl(2-(anthracen-9-yl)ethyl) carbonate], the “% release after heating … (h) 0.25” value was found to be 12.0 ± 0.8%, the “% release after heating … (h) 0.5” value came to 14.1 ± 0.7%, the “% release after heating … (h) 0.75” value was 16.4 ± 1.0% and the “% release after heating … (h) 1” value stood at 18.0 ± 0.7%. For the same compound, the “% release after heating (55° C.) at time (h) 2” value is recorded as 24.8 ± 1.1%; the “% release after heating … (h) 3” value amounted to 29.0 ± 1.0%; the “% release after heating … (h) 24 h” value turned out to be 62.1 ± 5.6%; the “% release at rt, 3.5 h” value is recorded as 9.6 ± 1.1%.

Turning to `C=CCNCCCCCC(=O)OCCc1c2ccccc2cc2ccccc12` [Compound 4.3, 2-(anthracen-9-yl)ethyl 6-(allylamino)hexanoate], the “% release after heating … (h) 0.25” value was found to be 2.1 ± 1.6%, the “% release after heating … (h) 0.5” value worked out at 1.8 ± 1.9%, the “% release after heating … (h) 0.75” value amounted to 2.1 ± 2.2% and the “% release after heating … (h) 1” value was 2.1 ± 1.8%. Moreover, the “% release after heating (55° C.) at time (h) 2” value came to 3.1 ± 2.9%; the “% release after heating … (h) 3” value is recorded as 3.6 ± 3.0%; the “% release after heating … (h) 24 h” value is recorded as 10.4 ± 3.8%; the “% release at rt, 3.5 h” value turned out to be 1.7 ± 2.0%.

With `C=CCNCCNC(=O)OCCc1c2ccccc2cc2ccccc12` [Compound 10, 2-(anthracen-9-yl)ethyl(2-(allylamino)ethyl)carbamate], the “Heat-induced release of 11 or 12 (result in words, spans all time columns)” value is “no reaction”.

For `C=CCNCCCC(=O)NCCc1c2ccccc2cc2ccccc12` [Compound 9, 4-(allylamino)-N-(2-(anthracen-9-yl)ethyl)butanamide], the “Heat-induced release of 11 or 12 (result in words, spans all time columns)” value was “no reaction”.

For the compound `C=CCNCCCCC(=O)OCCc1c2ccccc2cc2ccccc12` [Compound 4.2, 2-(anthracen-9-yl)ethyl 5-(allylamino)pentanoate], the “% release after heating … (h) 0.25” value came out at 20.9 ± 1.9%, the “% release after heating … (h) 0.5” value turned out to be 21.6 ± 3.5%, the “% release after heating … (h) 0.75” value is 23.0 ± 3.0% and the “% release after heating … (h) 1” value was 25.0 ± 2.1%. Also, the “% release after heating (55° C.) at time (h) 2” value turned out to be 30.5 ± 1.3%; the “% release after heating … (h) 3” value worked out at 36.5 ± 1.2%; the “% release after heating … (h) 24 h” value was 75.7 ± 3.2%; the “% release at rt, 3.5 h” value is given as 17.0 ± 4.5%.

As for `C=CCNCCC(C)(C)COC(=O)OCCc1c2ccccc2cc2ccccc12` [Compound 23, 4-(allylamino)-2,2-dimethylbutyl(2-(anthracen-9-yl)ethyl) carbonate], the “% release after heating … (h) 0.25” value is 1.8 ± 0.4%, the “% release after heating … (h) 0.5” value was found to be 2.3 ± 0.5%, the “% release after heating … (h) 0.75” value was found to be 2.9 ± 0.1% and the “% release after heating … (h) 1” value was 4.0 ± 0.3%. Further, the “% release after heating (55° C.) at time (h) 2” value worked out at 5.7 ± 1.0%; the “% release after heating … (h) 3” value is 7.6 ± 0.3%; the “% release after heating … (h) 24 h” value is given as 36.6 ± 0.3%; the “% release at rt, 3.5 h” value came out at 0.7 ± 0.1%.
